Laboratory results: US20120302530A1, “23-HYDROXY-BETULINIC ACID DERIVATIVES, PREPARATION METHODS AND USES THEREOF” (priority 2009, published 2012)

Assays:
[1] = Pharmacokinetics of zhangnan-5 in mice; type: in vivo; settings: both sexes, BlebC, mouse, oral, 100 mg/kg single dose, plasma, average +/− standard deviation
Procedure: (5) Pharmacokinetics research of the compound zhangnan-5 in mice body: (see Singh S S, Shah H, Gupta S, Jain M, Sharma K, Thakkar P, Shah R. Liquid chromatography—electrospray ionisation mass spectrometry method for the determination of escitalopram in human plasma and its application in bioequivalence study. J Chromatogr B Analyt Technol Biomed Life Sci. 2004 Nov. 25; 811 (2):209-15).
Four 8-week old BlebC mice (two male and two female) are used, feeding with the compound zhangnan-5 of 100 mg/kg for single dose. At 0.5, 1, 3, 6, 12, 24, 48, and 72 hours upon mouth feeding the drug, blood is collected via vena ophthalmica and blood plasma is made, to determine the plasma concentration of the given compound zhangnan-5.

[2] = Acute toxicity of zhangnan-5 to mice upon feeding; type: in vivo, BlebC mice
Source text: (6) Research on the acute toxicity of compound zhangnan-5 to mice upon feeding the drug: (see Gol'dberg L E, Stepanova E S, Vertogradova T P, Shevniuk L A, Shepelevtseva G. Preclinical toxicological study of the new antibiotic eremomycin. Its acute toxicity for laboratory animals, Antibiot Med Biotekhnol. 1987, 32 (12): 910-5).
Two groups of 8-week old BlebC mice are taken, and each group has 10 mice (five male and five female). The mice are fed with the compound zhangnan-5 (prepared with corn oil or carrier) in single dose 500 mg/kg and in multi-dose 200 mg/kg (QDX15), respectively. Then, observation is made to the mice for 1 week and 4 week, respectively. The mice are weighted every other day. When the test is over, the tested mice are killed for pathological analysis. […] Thus, the compound zhangnan-5 has great potential to be developed as a new antineoplastic drug of wide spectrum. The compound zhangnan-5 can be used as drug substance of anti-tumor drugs, preferably used as drug substance of anti-malignant solid tumor drugs. The compound zhangnan-5 can also be used with drug carrier and/or excipient to make anti-tumor drug. The drug carrier and/or excipient can be, for example, corn oil, sodium carboxymethylcellulose, and the like.

[3] = test system: human colon cancer cell HCT-116; test: Human tumor xenograft model in nude mice; type: in vivo, nude mice (nu/nu); settings: HCT-116 xenograft, 30 mg/kg oral, 5 times a week for 3 weeks, end point 4 weeks; low = active
Source text: (§1) (7) Drug administration of human tumor xenograft model and nude mice tumor transplantation model: (see Harrison S D Jr; Growth of human tumor cells in athymic mice; J Natl Cancer Inst. 1991 Oct. 16; 83 (20): 1509).
(§2) T cell deficiency nude mice (nu/nu) (male, 6-week old) are bought from Charles River Lab, and are raised in pathogen-free environment according to guidelines of animal raising and using committee of university. The number of […] LNCaP, NCI-H23, HCT-116, G-361 and U-251 cells are suspended in 0.2 ml HBSS or matrigel (50: 50, v/v), and are subcutaneously vaccinated to the side abdomen region of the mice. When the average diameters of the tumors are 7˜8 mm, the mice having tumor size of 100˜200 mm3 are chosen, and are given with treatment group of compound zhangnan-5 prepared with corn oil and are only given with control group of empty carrier (corn oil), respectively.
(§3) In the oral feeding test, the compound zhangnan-5 (30 mg/kg) is dissolved in corn oil. Each day the mice are tube fed with 200 μl drug liquid in single dose (prepared with corn oil, containing 0.75 mg compound zhangnan-5) for 5 times a week and for 3 weeks. The control group is given placebo (corn oil) according to same method. The mice are raised separately, and are allowed to self-help feeding.
(§4) The tumor is measured in two vertical directions every 3˜4 days.

[4] = test system: human lung cancer cell NCI-H23; test: Human tumor xenograft model in nude mice; type: in vivo, nude mice (nu/nu); settings: 30 mg/kg oral, 5 times a week for 3 weeks, end point 4 weeks, low = active
Source text: as §1, §2, §3, §4

[5] = test system: human malignant glioma cell U-251; test: Human tumor xenograft model in nude mice; type: in vivo, nude mice (nu/nu); settings: U-251 xenograft, 30 mg/kg oral, 5 times a week for 3 weeks, end point 4 weeks; low = active
Source text: as §1, §2, §3, §4

[6] = test system: human melanoma cell G-361; test: Human tumor xenograft model in nude mice; type: in vivo, nude mice (nu/nu); settings: G-361 xenograft, 30 mg/kg oral, 5 times a week for 3 weeks, end point 4 weeks; low = active
Source text: as §1, §2, §3, §4

[7] = test system: human prostate cancer cell LnCAP; test: Human tumor xenograft model in nude mice; type: in vivo, nude mice (nu/nu); settings: 30 mg/kg oral, 5 times a week for 3 weeks, end point 4 weeks, low = active
Source text: as §1, §2, §3, §4

C=C(C)C1CCC2(C(=O)O)CCC3(C)C(CCC4C5(C)CCC(=O)C(C)(CO)C5CCC43C)C12 (centres unmarked) [zhangnan-5]
Cmax [1]: 65 µM
Tmax [1]: 1.42 h
half-life ([1]; read-out: T½ (converted)): 11.5 h
toxicity, multi-dose ([2]; fed, multi-dose 200 mg/kg (QDX15), observed 4 week): no toxicity is observed
acute toxicity ([2]; fed, single dose 500 mg/kg, observed 1 week): no toxicity is observed
mortality ([2]; single dose 500 mg/kg and multi-dose 200 mg/kg (QDX15)): no single death
TGI (T/C×100 of relative tumor volume) [3]: 6.9%
TGI (T/C×100 of relative tumor volume) [4]: 0%
T/C of relative tumor volume (treated/control × 100) [5]: 12.5%
TGI (T/C×100 of relative tumor volume) [6]: 10.8%
T/C of relative tumor volume (%) [7]: 5%
